Results from patent US20240101521A1, “DIAMINOTRIAZINE COMPOUNDS” (BASF SE, priority 2021, published 2024).

Tests used:
Test in all cases: greenhouse pre-emergence herbicidal test
Type in all cases: in vivo
Settings in all cases: scale 0 to 100
Amaranthus retroflexus = test system: Amaranthus retroflexus
Text: (§1) The culture containers used were plastic flowerpots containing loamy sand with approximately 3.0% of humus as the substrate. The seeds of the test plants were sown separately for each species.
(§2) For the pre-emergence treatment, the active ingredients, which had been suspended or emulsified in water, were applied directly after sowing by means of finely distributing nozzles. The containers were irrigated gently to promote germination and growth and subsequently covered with transparent plastic hoods until the plants had rooted. This cover caused uniform germination of the test plants, unless this had been impaired by the active ingredients. For the post-emergence treatment, the test plants were first grown to a height of 3 to 15 cm, depending on the plant habit, and only then treated with the active ingredients which had been suspended or emulsified in water. For this purpose, the test plants were either sown directly and grown in the same containers, or they were first grown separately as seedlings and transplanted into the test containers a few days prior to treatment.
(§3) Depending on the species, the plants were kept at 10-25° C. or 20-35° C., respectively.
(§4) The test period extended over 2 to 4 weeks. During this time, the plants were tended, and their response to the individual treatments was evaluated.
(§5) Evaluation was carried out using a scale from 0 to 100. 100 means no emergence of the plants, or complete destruction of at least the aerial moieties, and 0 means no damage, or normal course of growth. A moderate herbicidal activity is given at values of at least 60, a good herbicidal activity is given at values of at least 70, and a very good herbicidal activity is given at values of at least 85.
(§6) The plants used in the greenhouse experiments were of the following species: […]

Echinochloa crus-galli = test system: Echinochloa crus-galli
Text: as §1, §2, §3, §4, §5, §6

Setaria faberi = test system: Setaria faberi
Text: as §1, §2, §3, §4, §5, §6

Row | SMILES | herbicidal activity (Amaranthus retroflexus; pre-emergence, 62,5 g/ha) [%] | herbicidal activity (Echinochloa crus-galli; pre-emergence, 62,5 g/ha) [%] | herbicidal activity (Setaria faberi; pre-emergence, 62,5 g/ha) [%] | other results
1 | CCOc1c(Br)cc(F)c(F)c1Nc1nc(N)nc(C2(F)CCCC2)n1 [Example 21] | 95 | 100 | 100 | 
2 | CCC#CCOc1c(Br)cc(F)c(F)c1Nc1nc(N)nc(C2(F)CCCC2)n1 [Example 22] | 85 | 85 | 100 | 
3 | CCOc1c(Cl)cc(F)c(F)c1Nc1nc(N)nc(C(C)(C)F)n1 [Example 23] | 100 | 100 | 100 | 
4 | CCC#CCOc1c(Cl)cc(F)c(F)c1Nc1nc(N)nc(C(C)(C)F)n1 [Example 24] | 100 | 100 | 100 | 
5 | COc1c(Br)ccc(F)c1Nc1nc(N)nc(C2(F)CCCC2)n1 [Example 25] |  |  |  | herbicidal activity (Amaranthus retroflexus; pre-emergence, 250 g/ha): 100%; herbicidal activity (Echinochloa crus-galli; pre-emergence, 250 g/ha): 100%; herbicidal activity (Setaria faberi; pre-emergence, 250 g/ha): 100%
6 | COCOc1c(Br)ccc(F)c1Nc1nc(N)nc(C(C)(C)F)n1 [Example 26] |  |  |  | herbicidal activity (Amaranthus retroflexus; pre-emergence, 250 g/ha): 100%; herbicidal activity (Echinochloa crus-galli; pre-emergence, 250 g/ha): 100%; herbicidal activity (Setaria faberi; pre-emergence, 250 g/ha): 100%
7 | C#CCOc1c(Br)cc(F)c(F)c1Nc1nc(N)nc(C2(F)CCCC2)n1 [Example 27] |  |  |  | herbicidal activity (Amaranthus retroflexus; pre-emergence, 31 g/ha): 100%; herbicidal activity (Setaria faberi; pre-emergence, 31 g/ha): 100%
8 | C#CCOc1c(Cl)cc(F)c(F)c1Nc1nc(N)nc(C(C)(C)F)n1 [Example 28] | 100 | 100 | 100 | 
9 | COc1c(Cl)cc(F)c(F)c1Nc1nc(N)nc(C(C)Cl)n1 (stereo not shown) [Example 38] | 100 | 100 | 100 | 
10 | COc1c(Cl)cc(F)c(F)c1Nc1nc(N)nc(C(C)F)n1 (stereo not shown) [Example 39] | 100 | 100 | 100 | 
11 | COc1c(Cl)cc(F)c(F)c1Nc1nc(N)nc(C(F)C2CC2)n1 (stereo not shown) [Example 40] | 100 | 100 | 100 | 
12 | CCOc1c(Cl)ccc(F)c1Nc1nc(N)nc(C(C)(C)F)n1 [Example 41] | 100 | 100 | 100 | 
13 | CC#CCOc1c(Cl)ccc(F)c1Nc1nc(N)nc(C(C)(C)F)n1 [Example 42] |  |  |  | herbicidal activity (Amaranthus retroflexus; pre-emergence, 31 g/ha): 100%; herbicidal activity (Echinochloa crus-galli; pre-emergence, 31 g/ha): 100%; herbicidal activity (Setaria faberi; pre-emergence, 31 g/ha): 100%
14 | COc1c(Cl)ccc(F)c1Nc1nc(N)nc(C(C)F)n1 (stereo not shown) [Example 43] | 100 | 100 | 100 | 
15 | COc1c(Br)ccc(F)c1Nc1nc(N)nc(C(C)F)n1 (stereo not shown) [Example 44] | 100 | 100 | 100 | 
16 | CCOc1c(Br)ccc(F)c1Nc1nc(N)nc(C(C)(C)F)n1 [Example 45] | 100 | 100 | 100 | 
17 | CC#CCOc1c(Br)ccc(F)c1Nc1nc(N)nc(C(C)(C)F)n1 [Example 46] | 100 | 100 | 100 | 
18 | CC#CCOc1c(Br)cc(F)c(F)c1Nc1nc(N)nc(C(C)(F)F)n1 [Example 47] | 100 | 100 | 100 | 
19 | COc1c(Cl)ccc(F)c1Nc1nc(N)nc(C(C)(F)F)n1 [Example 48] |  |  |  | herbicidal activity (Amaranthus retroflexus; pre-emergence, 31 g/ha): 100%; herbicidal activity (Echinochloa crus-galli; pre-emergence, 31 g/ha): 70%; herbicidal activity (Setaria faberi; pre-emergence, 31 g/ha): 100%
20 | CCC(C)(F)c1nc(N)nc(Nc2c(F)c(Cl)cc(Cl)c2OC)n1 (stereo not shown) [Example 62] |  |  |  | herbicidal activity (Amaranthus retroflexus; pre-emergence, 31 g/ha): 100%; herbicidal activity (Echinochloa crus-galli; pre-emergence, 31 g/ha): 100%; herbicidal activity (Setaria faberi; pre-emergence, 31 g/ha): 100%
21 | CCOc1c(Br)cc(Br)c(F)c1Nc1nc(N)nc(C(C)(C)F)n1 [Example 66] |  |  |  | herbicidal activity (Amaranthus retroflexus; pre-emergence, 62 g/ha): 100%; herbicidal activity (Echinochloa crus-galli; pre-emergence, 62 g/ha): 100%; herbicidal activity (Setaria faberi; pre-emergence, 62 g/ha): 100%
22 | CC#CC(C)Oc1c(Br)cc(F)c(F)c1Nc1nc(N)nc(C2(F)CCCC2)n1 (stereo not shown) [Example 96] |  |  |  | herbicidal activity (Echinochloa crus-galli; pre-emergence, 62 g/ha): 70%; herbicidal activity (Setaria faberi; pre-emergence, 62 g/ha): 75%
